# System: cardiac cells (H9C2)
# Assay: Protective effect against t-BHP-induced cell death in cardiac cells (LDH release)
# Type: cell-based
# Details: Rattus norvegicus, t-BHP 400 PM, 2 hours, read-out: EC50, protective effect against cell death due to t-BHP induction
# Method: To confirm a protective effect on cardiac cells, H9C2 cells were seeded at 1.5×10^4 cells/well in a 96-well plate and cultured for 24 hours. The example compounds were diluted to have the final concentration of 0.001, 0.01, 0.03, 0.1, 0.3, 1, 3, 10, and 30 PM, respectively, and then added to different wells, and the resulting cells were cultured for 15 to 20 minutes. Tert-butyl hydroperoxide (t-BHP) was treated to have the final concentration of 400 PM, and the resulting cells were cultured for 2 hours. To confirm the cell death protection effect of each compound, the degree of extracellular secretion of lactate dehydrogenase (LDH) was measured using a cytotoxicity LDH assay kit [Dojindo; CK12]. Briefly, after 2 hours of t-BHP treatment on the cells, 70 μL of the supernatant was taken from the 96-well plate where the cells were cultured and transferred to a new 96-well plate. The assay buffer included in the kit was added at 70 μL/well (equal to that of the sample) and the plate was covered with foil to block light and allowed to react for 15 minutes at room temperature. While observing a color change of each sample, 35 μL/well of a stop solution was added, an absorbance at 490 nm was measured using an iD3 spectrophotometer, and an EC50 value was calculated.
row,Compound,EC50 [nM]
1,"CCN(CC)C(=O)c1cc(NC2CCCC2)c2[nH]c(-c3ccccc3)cc2c1 [Example 1, 7-(cyclopentylamino)-N,N-diethyl-2-phenyl-1H-indol-5-carboxamide]",≤ 300
2,"CCN(CC)C(=O)c1cc(NC2CCOCC2)c2[nH]c(-c3ccccc3)cc2c1 [Example 2, N,N-diethyl-2-phenyl-7-((tetrahydro-2H-pyran-4-yl)amino)-1H-indol-5-carboxamide]",≤ 300
3,"CCN(CC)C(=O)c1cc(NCc2ccccc2)c2[nH]c(-c3ccccc3)cc2c1 [Example 3, 7-(benzylamino)-N,N-diethyl-2-phenyl-1H-indole-5-carboxamide]",≤ 300
4,"CCN(CC)C(=O)c1cc(NCc2ccncc2)c2[nH]c(-c3ccccc3)cc2c1 [Example 4, N,N-diethyl-2-phenyl-7-((pyridin-4-ylmethyl)amino)-1H-indole-5-carboxamide]",≤ 300
5,"O=C(NC1CC1)c1cc(NC2CCCC2)c2[nH]c(-c3ccccc3)cc2c1 [Example 5, 7-(cyclopentylamino)-N-cyclopropyl-2-phenyl-1H-indole-5-carboxamide]",≤ 300
6,"O=C(NC1CC1)c1cc(NC2CCOCC2)c2[nH]c(-c3ccccc3)cc2c1 [Example 6, N-cyclopropyl-2-phenyl-7-((tetrahydro-2H-pyran-4-yl)amino)-1H-indole-5-carboxamide]",≤ 300
7,"O=C(NC1CC1)c1cc(NCc2ccccc2)c2[nH]c(-c3ccccc3)cc2c1 [Example 7, 7-(benzylamino)-N-cyclopropyl-2-phenyl-1H-indole-5-carboxamide]",≤ 300
8,"O=C(Nc1ccccc1)c1cc(NC2CCOCC2)c2[nH]c(-c3ccccc3)cc2c1 [Example 9, N,2-diphenyl-7-((tetrahydro-2H-pyran-4-yl)amino)-1H-indole-5-carboxamide]",300 to 1000
9,"O=C(Nc1ccccc1)c1cc(NCc2ccccc2)c2[nH]c(-c3ccccc3)cc2c1 [Example 10, 7-(benzylamino)-N,2-diphenyl-1H-indole-5-carboxamide]",300 to 1000
10,"CCN(CC)C(=O)Cc1cc(NC2CCCC2)c2[nH]c(-c3ccccc3)cc2c1 [Example 11, 2-(7-(cyclopentylamino)-2-phenyl-1H-indol-5-yl)-N,N-diethylacetamide]",300 to 1000
11,"CCN(CC)C(=O)Cc1cc(NC2CCOCC2)c2[nH]c(-c3ccccc3)cc2c1 [Example 12, N,N-diethyl-2-(2-phenyl-7-((tetrahydro-2H-pyran-4-yl)amino)-1H-indol-5-yl)acetamide]",≤ 300
12,"CCN(CC)C(=O)Cc1cc(NCc2ccncc2)c2[nH]c(-c3ccccc3)cc2c1 [Example 13, N,N-diethyl-2-(2-phenyl-7-((pyridin-4-ylmethyl)amino)-1H-indol-5-yl)acetamide]",300 to 1000
13,"CNC(=O)Cc1cc(NC2CCOCC2)c2[nH]c(-c3ccccc3)cc2c1 [Example 15, N-methyl-2-(2-phenyl-7-((tetrahydro-2H-pyran-4-yl)amino)-1H-indol-5-yl)acetamide]",≤ 300
14,"CNC(=O)Cc1cc(NC2CCCC2)c2[nH]c(-c3ccccc3)cc2c1 [Example 16, 2-(7-(cyclopentylamino)-2-phenyl-1H-indol-5-yl)-N-methylacetamide]",≤ 300
15,"O=C(Cc1cc(NCc2ccccc2)c2[nH]c(-c3ccccc3)cc2c1)NC1CC1 [Example 17, 2-(7-(benzylamino)-2-phenyl-1H-indol-5-yl)-N-cyclopropylacetamide]",≤ 300
16,"O=C(Cc1cc(NCc2ccccc2)c2[nH]c(-c3ccccc3)cc2c1)Nc1ccccc1 [Example 18, 2-(7-(benzylamino)-2-phenyl-1H-indol-5-yl)-N-phenylacetamide]",300 to 1000
17,"O=C(Cc1cc(NC2CCOCC2)c2[nH]c(-c3ccccc3)cc2c1)Nc1ccccc1 [Example 19, N-phenyl-2-(2-phenyl-7-((tetrahydro-2H-pyran-4-yl)amino)-1H-indo1-5-yl)acetamide]",≤ 300
18,"CCNS(=O)(=O)c1cc(NC2CCOCC2)c2[nH]c(-c3ccccc3)cc2c1 [Example 20, N-ethyl-2-phenyl-7-((tetrahydro-2H-pyran-4-yl)amino)-1H-indole-5-sulfonamide]",≤ 300
19,"CCNS(=O)(=O)c1cc(NCc2ccccc2)c2[nH]c(-c3ccccc3)cc2c1 [Example 21, 7-(benzylamino)-N-ethyl-2-phenyl-1H-indole-5-sulfonamide]",> 1000
20,"N#CCc1cc(NC2CCOCC2)c2[nH]c(-c3ccccc3)cc2c1 [Example 23, 2-(2-phenyl-7-((tetrahydro-2H-pyran-4-yl)amino)-1H-indol-5-yl)acetonitrile]",≤ 300

row,Compound,EC50 [nM]
1,"CC(C)(O)C#Cc1cc(NC2CCOCC2)c2[nH]c(-c3ccccc3)cc2c1 [Example 24, 2-methyl-4-(2-phenyl-7-((tetrahydro-2H-pyran-4-yl)amino)-1H-indol-5-yl)but-3-yn-2-ol]",≤ 300
2,"CC(C)(O)C#Cc1cc(NC2CCCC2)c2[nH]c(-c3ccccc3)cc2c1 [Example 25, 4-(7-(cyclopentylamino)-2-phenyl-1H-indol-5-yl)-2-methylbut-3-yn-2-ol]",≤ 300
3,"OCCOCc1cc(NC2CCCC2)c2[nH]c(-c3ccccc3)cc2c1 [Example 26, 2-((7-(cyclopentylamino)-2-phenyl-1H-indol-5-yl)methoxy)ethan-1-ol]",≤ 300
4,"OCCOCCCc1cc(NC2CCOCC2)c2[nH]c(-c3ccccc3)cc2c1 [Example 28, 2-(3-(2-phenyl-7-((tetrahydro-2H-pyran-4-yl)amino)-1H-indol-5-yl)propoxy)ethan-1-ol]",≤ 300
5,"CC(C)(O)COCc1cc(NC2CCOCC2)c2[nH]c(-c3ccccc3)cc2c1 [Example 30, 2-methyl-1-((2-phenyl-7-((tetrahydro-2H-pyran-4-yl)amino)-1H-indol-5-yl)methoxy)propan-2-ol]",≤ 300
6,"CC(C)(O)COCCOCc1cc(NC2CCOCC2)c2[nH]c(-c3ccccc3)cc2c1 [Example 31, 2-methyl-1-(2-((2-phenyl-7-((tetrahydro-2H-pyran-4-yl)amino)-1H-indol-5-yl)methoxy)ethoxy)propan-2-ol]",≤ 300
7,"CCC(O)(CC)COCCOCc1cc(NC2CCOCC2)c2[nH]c(-c3ccccc3)cc2c1 [Example 32, 3-((2-((2-phenyl-7-((tetrahydro-2H-pyran-4-yl)amino)-1H-indol-5-yl)methoxy)ethoxy)methyl)pentan-3-ol]",≤ 300
8,"OCCOCCc1cc(NC2CCOCC2)c2[nH]c(-c3ccccc3)cc2c1 [Example 33, 2-(2-(2-phenyl-7-((tetrahydro-2H-pyran-4-yl)amino)-1H-indol-5-yl)ethoxy)ethan-1-ol]",≤ 300
9,"OCCCOCCOCc1cc(NC2CCOCC2)c2[nH]c(-c3ccccc3)cc2c1 [Example 34, 3-(2-((2-phenyl-7-((tetrahydro-2H-pyran-4-yl)amino)-1H-indol-5-yl)methoxy)ethoxy)propan-1-ol]",≤ 300
10,"OC1CCC(OCc2cc(NC3CCOCC3)c3[nH]c(-c4ccccc4)cc3c2)CC1 (stereo not drawn) [Example 35, 4-((2-phenyl-7-((tetrahydro-2H-pyran-4-yl)amino)-1H-indol-5-yl)methoxy)cyclohexan-1-ol]",≤ 300
11,"c1ccc(-c2cc3cc(COC4CCOCC4)cc(NC4CCOCC4)c3[nH]2)cc1 [Example 37, 2-phenyl-N-(tetrahydro-2H-pyran-4-yl)-5-(((tetrahydro-2H-pyran-4-yl)oxy)methyl)-1H-indol-7-amine]",≤ 300
12,"OC1CCC(OCCOCc2cc(NC3CCOCC3)c3[nH]c(-c4ccccc4)cc3c2)CC1 (stereo not drawn) [Example 38, 4-(2-((2-phenyl-7-((tetrahydro-2H-pyran-4-yl)amino)-1H-indol-5-yl)methoxy)ethoxy)cyclohexan-1-ol]",> 1000
13,"FCCOCc1cc(NC2CCOCC2)c2[nH]c(-c3ccccc3)cc2c1 [Example 39, 5-((2-fluoroethoxy)methyl)-2-phenyl-N-(tetrahydro-2H-pyran-4-yl)-1H-indol-7-amine]",≤ 300
14,"c1ccc(-c2cc3cc(COCCN4CCOCC4)cc(NC4CCOCC4)c3[nH]2)cc1 [Example 42, 5-((2-morpholinoethoxy)methyl)-2-phenyl-N-(tetrahydro-2H-pyran-4-yl)-1H-indol-7-amine]",≤ 300
15,"O=S1(=O)CCN(CCOCc2cc(NC3CCCC3)c3[nH]c(-c4ccccc4)cc3c2)CC1 [Example 43, 4-(2-((7-(cyclopentylamino)-2-phenyl-1H-indol-5-yl)methoxy)ethyl)thiomorpholine 1,1-dioxide]",≤ 300
16,"CS(=O)(=O)CCOCc1cc(NC2CCCC2)c2[nH]c(-c3ccccc3)cc2c1 [Example 44, N-cyclopentyl-5-((2-(methylsulfonyl)ethoxy)methyl)-2-phenyl-1H-indol-7-amine]",≤ 300
17,"CS(=O)(=O)CCOCc1cc(NC2CCOCC2)c2[nH]c(-c3ccccc3)cc2c1 [Example 45, 5-((2-(methylsulfonyl)ethoxy)methyl)-2-phenyl-N-(tetrahydro-2H-pyran-4-yl)-1H-indol-7-amine]",≤ 300
18,"c1ccc(-c2cc3cc(COCCN4CCSCC4)cc(NC4CCOCC4)c3[nH]2)cc1 [Example 46, 2-phenyl-N-(tetrahydro-2H-pyran-4-yl)-5-((2-thiomorpholinoethoxy)methyl)-1H-indol-7-amine]",≤ 300
19,"O=S1(=O)CCN(CCOCc2cc(NC3CCOCC3)c3[nH]c(-c4ccccc4)cc3c2)CC1 [Example 47, 4-(2-((2-phenyl-7-((tetrahydro-2H-pyran-4-yl)amino)-1H-indol-5-yl)methoxy)ethyl)thiomorpholine 1,1-dioxide]",300 to 1000
